One assay relates to HIV-1 strain NL4-3. The experiment in a line: Neutralization assay (TZM-bl, pseudovirus), NL4-3 isolate. The assay is classed as cell-based. The protocol: HIV-1 isolates NL4-3, BaL, AC10, SVBP6, SVBP8, SVBP11, SVBP12, SVBP14, SVBP15, SVBP17, SVBP18 and SVBP19 were generated as pseudoviruses using Env expression plasmids and the pSG3 vector. See Sanchez-Palomino S, et al., Vaccine 2011; 29:5250-5259. Cell-free virus neutralization by the antibody derivatives was tested by a standard TZM-bl based assay. See Li, 2005, supra. Briefly, in a 96-well culture plate, 100 of previously diluted antibody derivatives were preincubated with 50 μL of pseudovirus stock, using 200 TCID50 (tissue culture infectious doses) at 37° C. for one hour. Then, 100 containing 10,000 TZM-bl luciferase-reporter target cells per well were added. Plates were cultured at 37° C. and 5% CO2 for 48 hours. […] A luciferase substrate, Britelite Plus (PerkinElmer, Inc., Waltham, Mass., USA), was used for the readout. Non-linear fit of neutralization data was calculated using normalized values fitted to a one site inhibition curve with variable Hill slope. […]
Briefly, in a 96-well culture plate, 100 μL of previously diluted plasma samples were preincubated with 50 μL of pseudovirus stock, using 200 TCID50 at 37° C. for one hour. […] A luciferase substrate, Britelite Plus (PerkinElmer, Inc., Waltham, Mass., USA), was used for the readout. Non-linear fit of neutralization data was calculated using normalized values fitted to a one site inhibition curve with variable Hill slope. […]

In another assay the test system is HIV-1 strain BaL. The experiment in a line: Neutralization assay (TZM-bl, pseudovirus), BaL isolate. It is filed as cell-based.
Assay [1] deals with panel of HIV subtype B viruses. The assay can be described thus: Neutralization assay against panel of HIV subtype B viruses (SVBP isolates). The assay is classed as cell-based, HIV-1.
Description: HIV-1 isolates NL4-3, BaL, AC10, SVBP6, SVBP8, SVBP11, SVBP12, SVBP14, SVBP15, SVBP17, SVBP18 and SVBP19 were generated as pseudoviruses using Env expression plasmids and the pSG3 vector. […] Cell-free virus neutralization by the antibody derivatives was tested by a standard TZM-bl based assay. […] Briefly, in a 96-well culture plate, 100 of previously diluted antibody derivatives were preincubated with 50 μL of pseudovirus stock, using 200 TCID50 (tissue culture infectious doses) at 37° C. for one hour. Then, 100 containing 10,000 TZM-bl luciferase-reporter target cells per well were added. Plates were cultured at 37° C. and 5% CO2 for 48 hours. Serial dilutions of the antibody derivatives were tested, from 1000 to 0.1 ng/mL. TZM-bl reporter cells were treated with dextran (Sigma-Aldrich, Saint Louis, Mo., USA) to enhance infectivity. A luciferase substrate, Britelite Plus (PerkinElmer, Inc., Waltham, Mass., USA), was used for the readout. Non-linear fit of neutralization data was calculated using normalized values fitted to a one site inhibition curve with variable Hill slope. All statistical analyses and non-linear fitting were performed using the GraphPad Prism v5.0 software. […]

Description for HIV-1 strain BaL: HIV-1 isolates NL4-3, BaL, AC10, SVBP6, SVBP8, SVBP11, SVBP12, SVBP14, SVBP15, SVBP17, SVBP18 and SVBP19 were generated as pseudoviruses using Env expression plasmids and the pSG3 vector. […] Cell-free virus neutralization by the antibody derivatives was tested by a standard TZM-bl based assay. […] Briefly, in a 96-well culture plate, 100 of previously diluted antibody derivatives were preincubated with 50 μL of pseudovirus stock, using 200 TCID50 (tissue culture infectious doses) at 37° C. for one hour. Then, 100 containing 10,000 TZM-bl luciferase-reporter target cells per well were added. Plates were cultured at 37° C. and 5% CO2 for 48 hours. Serial dilutions of the antibody derivatives were tested, from 1000 to 0.1 ng/mL. TZM-bl reporter cells were treated with dextran (Sigma-Aldrich, Saint Louis, Mo., USA) to enhance infectivity. A luciferase substrate, Britelite Plus (PerkinElmer, Inc., Waltham, Mass., USA), was used for the readout. Non-linear fit of neutralization data was calculated using normalized values fitted to a one site inhibition curve with variable Hill slope. All statistical analyses and non-linear fitting were performed using the GraphPad Prism v5.0 software.

Regarding “MOLECULE-0: CD4-IgG1 fusion protein, SEQ ID NO:11”, the “blocking the infectivity of NL4-3 (in words)” value with HIV-1 strain NL4-3 is recorded as “lower neutralizing activity”. In addition, the “blocking the infectivity of BaL (in words)” value in the assay on HIV-1 strain BaL is given as “lower neutralizing activity”. In assay [1], the “neutralization of panel of HIV subtype B isolates (in words)” value is reported as “unable to neutralize primary isolates at 100 ng/mL”.
